Laboratory results from patent publication US7332468B2, “8-tetradecenal as fragrance and flavoring substance” (Symrise GmbH & Co. KG, priority 2001, dated 2008).

What was measured:
[1] = Boelens, Van Gemert 1987; cited from earlier work
[2] = Determination of the odor threshold values in water
Description: The odor threshold values in water were determined in the conventional manner for (Z)-8- and (E)-8-tetradecenal and for two comparison substances.

[3] = Cadwallader et al. 1999; cited from earlier work
[4] = Modification of a conventional orange flavor composition; conditions: based on the total mass of the composition
Description: A conventional flavor composition (composition A) was compared with a flavor composition according to the invention (composition B).

[5] = Odor description by a panel of expert flavoring specialists, ranking scale 0-4; set-up: key to Green-herby / Honey-like (beeswax) / Fresh, fizzy / Citrus-like / Fruity / Flowery / Of orange peel / Of pith / Sweet / Fatty / Waxy: 0: absent; 1: weak; 2: moderate; 3: strong; 4: very strong; conditions: odor ranking 0-4, expert panel
Description: The substances (Z)-8- and (E)-8-tetradecenal according to the invention were tested by a panel of expert flavoring specialists in the conventional manner. The experts assessed the relevant odors on the basis of the procedure in the article entitled “Organoleptic properties of aliphatic aldehydes”, Boelens, Mans H.; Van Gemert, Leo J.; Perfum. Flavor. (1987), 12(5), 31-7, 40, 43, which has already been cited, i.e. they quantified the odors of the particular substance on the basis of an assessment scale with rankings of 0-4. The rankings have the following meanings: • 0: absent • 1: weak • 2: moderate • 3: strong • 4: very strong

For `CCCCC/C=C/C=O` [trans-2-octenal], the citrus aspect [1] is listed as “noteworthy”.

With `CCCCCC/C=C\CCCCCC=O` [7-(Z)-tetradecenal, (Z)-7-tetradecenal] the “usable sensory properties compared with (Z)-8-tetradecenal” value [2] was “do not have any usable sensory properties”, the Odor threshold value ([2]; in water) was 2.60 ppb and the “odor threshold compared with that of (Z)-8-tetradecenal” value ([2]; in water) was “approximately two orders of magnitude higher”.

With `CCCC/C=C\CCCCCCCC=O` [9-(Z)-tetradecenal, (Z)-9-tetradecenal] the “usable sensory properties compared with (Z)-8-tetradecenal” value [2] was “do not have any usable sensory properties”, the Odor threshold value ([2]; in water) was 1.44 ppb and the “odor threshold compared with that of (Z)-8-tetradecenal” value ([2]; in water) was “approximately two orders of magnitude higher”.

For `CCCCCCCC/C=C/C=O` [trans-2-undecenal], the citrus aspect [1] is listed as “noteworthy”.

For `CCCCCCC/C=C/C=O` [trans-2-decenal], the citrus aspect [1] is given as “noteworthy”.

In the case of `CCCCC/C=C/CCC=O` [(E)-4-decenal], the odor description [3] is listed as “citrus peel”.

With `CCCCC/C=C\CCCCCCC=O` [8-(Z)-tetradecenal, (Z)-8-tetradecenal] the Odor threshold value ([2]; in water) was 0.009 ppb, the “odor threshold value lower than that of (Z)-7-tetradecenal and (Z)-9-tetradecenal” value ([2]; in water) was “approximately 2 orders of magnitude” and the “proportion sufficient to make a conventional orange flavor fresher, juicier, more typical and more harmonious” value [4] was 0.001 % (m/m). For the same compound, the Chemical [5] was 0-1, the Citrus-like [5] was 4 and the Fatty [5] was 1. For the same compound, the Flowery [5] was 2, the “Fresh, fizzy” value [5] was 4 and the Fruity [5] was 1. For the same compound, the Green-herby [5] was 0, the “Honey-like (beeswax)” value [5] was 2 and the Of orange peel [5] was 4. For the same compound, the Of pith [5] was 4, the Sweet [5] was 3 and the Waxy [5] was 1-2.

In the case of `CCCCCCCCCCC/C=C/C=O` [(E)-2-tetradecenal], the odor description [3] is given as “fatty, waxy, cheesy”, the citrus aspect [1] is given as “weak” and the fatty aspect [1] is given as “strong”.

For `CCCCC/C=C/CCCCCCC=O` [8-(E)-tetradecenal, (E)-8-tetradecenal], the Odor threshold value ([2]; in water) was 1.24 ppb, the Chemical [5] was 2-3 and the Citrus-like [5] was 1-2. The Fatty [5] was 4, the Flowery [5] was 0-1 and the “Fresh, fizzy” value [5] was 0. For the same compound, the Fruity [5] was 0, the Green-herby [5] was 1 and the “Honey-like (beeswax)” value [5] was 0. The Of orange peel [5] was 0, the Of pith [5] was 1 and the Sweet [5] was 1-2. It also gave a Waxy [5] of 4.
